Columns and labels:
[1] = system: circulating WBCs; assay: Circulating WBC counts (full blood counts) during mobilization; assay type: in vivo, mouse; settings: WT mice
Description: (§1) To study the role of the plasminogen proteinase system with its plasminogen activators tPA and uPA, and active plasmin in stem/progenitor cell mobilization, mice lacking plasminogen (Plg^−/−), tPA (tPA^−/−), uPA (uPA^−/−) and both activators (tPA^−/−uPA^−/−) were used.^(17, 18) Age- and sex-matched mice were kept in IVC cages. Mobilization was induced either via a single sublethal injection i.v. of the myeloablative agent 5-fluorouracil (5-FU, 200-250 mg/kg), or via administration s.c. of recombinant human G-CSF (Filgrastim, Amgen, 200 μg/kg/d) for five consecutive days.^(12) Peripheral blood (PB) samples were obtained by retro-orbital bleeding under light anesthesia. Full blood counts were determined on the Abbott Cell Dyn 1300 hemocytometer. The number of mobilized hematopoietic progenitor cells (HPCs) in the circulation was determined via methylcellulose-based CFU-C assays (MethoCult, Stem Cell Technologies), per 10^5 peripheral blood mononuclear cells (PB MNCs).^(12) The number of mobilized hematopoietic stem cells (HSCs) in the circulation was quantified via splenic colony-forming assays (CFU-S), and evaluated for long-term engraftment via transplantation into lethally irradiated syngeneic wild-type recipients (9.5 Gy total body irradiation). […]

[2] = system: hematopoietic progenitor cells (HPCs); assay: Circulating CFU-C assay on PB MNCs (mobilized HPCs); assay type: in vivo, mouse
Description: as §1
Wild-type mice and mice lacking Plg, both tPA and uPA, tPA, uPA, uPAR, PAI-1, α2AP, MMP-2 (kind gift from S. Itohara), MMP-3 (kind gift from J. Mudgett), MMP-9, MMP-12 (kind gift from S. Shapiro), and TIMP-1 (obtained by courtesy of P. Soloway) were used, and housed in barrier cages (individually ventilated) (Heymans et al. (1999), Nat. Med. 5:1135-42). […] Peripheral blood was repetitively sampled by retro-orbital puncture under light anesthesia, and full blood counts (EDTA buffered) were determined on a hemocytometer (Abbott Cell Dyn 1300). Peripheral blood smears were stained using Giemsa-May-Grunwald and at least 200 cells were analyzed. […]

[3] = system: hematopoietic stem cells (HSCs); assay: Splenic colony-forming assay CFU-S (mobilized HSCs); assay type: in vivo, mouse; settings: WT mice
Description: as §1

[4] = system: BM MNCs (HPCs); assay: Chemotaxis transwell assay, migrated HPCs scored as CFU-Cs; assay type: cell-based, mouse; settings: factor in bottom well, overnight incubation; GM-CSF 100 ng/ml
Description: (§2) Mononuclear cells (MNCs) were prepared via Lympholiter-M (Cedarlane) and density centrifugation. For CFU-C assays, bone marrow cells (5×10^4), or PB MNCs (1×10^5 or 5×10^5) were plated in 35 mm dishes (Stem Cell Technologies) using methylcellulose supplemented with growth factors (MethoCult, Stem Cell Technologies), and colonies were blindly scored after seven and thirteen days, respectively, using an inverted microscope (Luttun et al. (2002), Nat. Med. 8:831-40). […] After five weeks of culture, cells were trypsinized, counted, plated in MethoCult, and CFU-Cs were scored after nine days. […] For CFU-S assays, lethal total body irradiation (9.0 to 9.5 Gy), and transplantation of mobilized PB MNCs (1 to 1.5×10^5) were performed in syngeneic recipients, survival was monitored or splenic colonies were blindly scored after twelve days using a dissection microscope. For bone marrow proliferation index, bone marrow cells from treated mice were plated in 96-well plates, CellTiter96 (Promega) was added, and repetitive colorimetric readings were performed at OD 490 nm. […] After overnight incubation, the migrated non-adherent cells in the bottom wells were collected, counted, plated in MethoCult and CFU-Cs were scored after twelve days.

[5] = system: HSCs; assay: Transplantation of mobilized PB MNCs into lethally irradiated WT recipients, survival; assay type: in vivo, mouse; settings: donors WT mice treated with G-CSF and agent
Description: as §1

[6] = system: HSCs in the BM; assay: HSCs in the BM, LTC-IC assay on AFT024 stromal feeder layers; assay type: in vivo, mouse; settings: WT mice, after two days of treatment
Description: as §2

[7] = system: HPCs in the BM; assay: CFU-Cs (HPCs) in the BM; assay type: in vivo, mouse; settings: WT mice, after two days of treatment
Description: as §2

[8] = system: BM cells; assay: BM proliferation index; assay type: in vivo, mouse; settings: G-CSF-treated, N=8
Description: In contrast, HSC translocation and HPC expansion in the bone marrow was completely abolished in G-CSF-treated Plg^−/− mice (FIG. 1, Panels j and k). […] Thus, plasminogen is required for stem/progenitor cell expansion during mobilization.
Mononuclear cells (MNCs) were prepared via Lympholiter-M (Cedarlane) and density centrifugation. For CFU-C assays, bone marrow cells (5×10^4), or PB MNCs (1×10^5 or 5×10^5) were plated in 35 mm dishes (Stem Cell Technologies) using methylcellulose supplemented with growth factors (MethoCult, Stem Cell Technologies), and colonies were blindly scored after seven and thirteen days, respectively, using an inverted microscope (Luttun et al. (2002), Nat. Med. 8:831-40). […] After five weeks of culture, cells were trypsinized, counted, plated in MethoCult, and CFU-Cs were scored after nine days. […] For CFU-S assays, lethal total body irradiation (9.0 to 9.5 Gy), and transplantation of mobilized PB MNCs (1 to 1.5×10^5) were performed in syngeneic recipients, survival was monitored or splenic colonies were blindly scored after twelve days using a dissection microscope. For bone marrow proliferation index, bone marrow cells from treated mice were plated in 96-well plates, CellTiter96 (Promega) was added, and repetitive colorimetric readings were performed at OD 490 nm. […]

[9] = system: tPA; assay: In vitro clot lysis with BM plasma samples; assay type: in vivo, mouse; settings: N=4
Text: Compared to WT or tPA^−/− mice, uPA^−/− mice had increased mortality and delayed hematopoietic recovery (FIG. 2, Panels b and c). […] Moreover, uPA deficiency reduced the number of BM HSCs (Sca1^+cKit^+) and HPCs (Sca1^+) after 5-FU. Thus, uPA is the responsible plasminogen activator, generating plasmin during 5-FU-induced stem cell mobilization. After G-CSF treatment, the levels of active tPA, but not uPA, increased in the BM plasma, when measured by casein zymography. […] To assess whether the specific up-regulation of tPA in response to G-CSF was functionally relevant, we determined whether tPA^−/− mice were capable of mobilizing stem/progenitor cells in response to G-CSF. […]
BM extracellular fluid (BM plasma) from mice was obtained as described previously (Petit et al. (2002), Nat. Immunol. 3:687-94). […] Murine sKitL and SDF1α protein levels were quantified using commercial available ELISA (R&D Systems, Abingdon, UK). Murine plasminogen, and murine and human suPAR were quantified by home-made ELISA (Heymans et al. (1999), Nat. Med. 5:1135-42; Sier et al. (2004), Thromb. Haemost. 91:403-11). […] MMP-2, MMP-9, and MMP-12 activities were measured using gelatin-zymography, uPA and MMP-3 activities were measured using casein-zymography, as described previously (Heymans et al. (1999), Nat. Med. 5:1135-42). […]

[10] = system: sKitL; assay: sKitL levels in BM plasma (ELISA); assay type: in vivo, mouse; settings: WT mice, after G-CSF
Description: BM extracellular fluid (BM plasma) from mice was obtained as described previously (Petit et al. (2002), Nat. Immunol. 3:687-94). BM plasma from healthy volunteers was obtained by using the first 10 ml of collection via puncture in the iliac crest under local anesthesia, and immediate anti-coagulation with EDTA. Protein extraction on BM cells was performed as described (Heymans et al. (1999), Nat. Med. 5:1135-42). Murine sKitL and SDF1α protein levels were quantified using commercial available ELISA (R&D Systems, Abingdon, UK). Murine plasminogen, and murine and human suPAR were quantified by home-made ELISA (Heymans et al. (1999), Nat. Med. 5:1135-42; Sier et al. (2004), Thromb. Haemost. 91:403-11). Lyophilized pertussis toxin was obtained from List Laboratories. MMP-2, MMP-9, and MMP-12 activities were measured using gelatin-zymography, uPA and MMP-3 activities were measured using casein-zymography, as described previously (Heymans et al. (1999), Nat. Med. 5:1135-42). Samples from gene-deficient mice were used as negative controls. Plasmin activity of BM plasma or cells (pericellular activity) was measured using substrate colorimetry (S2403), as described previously (Heymans et al. (1999), Nat. Med. 5:1135-42). Fibrinolytic activity was measured using a modified fluorescent-based in vitro clot lysis assay (Heymans et al. (1999), Nat. Med. 5:1135-42). Western blotting was performed on non-reduced samples, which were neutralized with a cocktail of protease inhibitors (Complete Inhibitor, Roche). ECM components/fragments were detected with antibodies against mouse fibronectin and laminin (Sigma), and human D1D2D3 and D2D3 (Andolfo et al. (1999), Thromb. Haemost. 88:298-306), secondary HRP-labeled antibodies (DAKO), and ECL detection system (Amersham Pharmacia).

[11] = G-CSF plus drug for five days, compared to control vehicle
[12] = G-CSF in combination with agent for five days, compared to G-CSF alone

Molecule: NC[C@H]1CC[C@H](C(=O)O)CC1 [exacyl, tranexamic acid]
- reduction of G-CSF-induced mobilization of WBCs [1, 11]: 37%
- reduction of G-CSF-induced mobilization of HPCs ([2]; WT mice, G-CSF plus drug for five days, compared to control vehicle): 55%
- reduction of G-CSF-induced mobilization of HSCs [3, 11]: 49%

Molecule: GM-CSF: recombinant human GM-CSF (R&D systems), positive control in chemotaxis assay
- HPCs in transwell [4]: 1363±323

Molecule: pertussis toxin
- mobilization of HPCs ([2]; uPAR−/− mice, single i.v. bolus of 500 ng, after five days): efficiently mobilized

Molecule: tenecteplase
- enhanced mobilization of WBCs [1, 12]: 87%
- enhanced mobilization of HPCs ([2]; WT mice, G-CSF in combination with agent for five days, compared to G-CSF alone): 65%
- enhanced mobilization of HSCs [3, 12]: 155%
- survival of lethally irradiated WT recipient mice after transplantation of mobilized cells [5]: significantly increased

B1: G-CSF: recombinant human G-CSF (Filgrastim, Amgen) (protein, chains of the INN, looked up)
chain: MTPLGPASSLPQSFLLKCLEQVRKIQGDGAALQEKLCATYKLCHPEELVLLGHSLGIPWAPLSSCPSQALQLAGCLSQLHSGLFLYQGLLQALEGISPELGPTLDTLQLDVADFATTIWQQMEELGMAPALQPTQGAMPAFASAFQRRAGGVLVASHLQSFLEVSYRVLRHLAQP
- reduction of the number of HSCs in the bone marrow [6]: 65%
- increase of the number of HPCs in the bone marrow [7]: 44%
- BM proliferation index (percent of proliferating BM cells in control mice) ([8]; Plg−/− mice): 73±8%
- BM proliferation index (percent of proliferating BM cells in control mice) ([8]; WT mice): 167±14%
- in vitro clot lysis, percentage of a positive standard ([9]; BM plasma of G-CSF-treated WT mice): 79±2%
- in vitro clot lysis, percentage of a positive standard ([9]; BM plasma of G-CSF-treated tPA−/− mice): 58±2%
- sKitL levels in the BM plasma [10]: not increased
